Experimental data reported in patent publication US20230034660A1, “PEPTIDES THAT ENHANCE NMDA RECEPTOR FUNCTION AND USE THEREOF” (University of Pittsburgh - Of the Commonwealth System of …, priority 2019, published 2023).

Target: T1, GluN2A-ZnT1 interactions (Rattus norvegicus, UniProt Q62720)
T1 construct: endogenous in cells; host or cells: rat embryonic (E16) cortical cultures, 3-4 weeks in vitro
T1 sequence (Q62720 1-507): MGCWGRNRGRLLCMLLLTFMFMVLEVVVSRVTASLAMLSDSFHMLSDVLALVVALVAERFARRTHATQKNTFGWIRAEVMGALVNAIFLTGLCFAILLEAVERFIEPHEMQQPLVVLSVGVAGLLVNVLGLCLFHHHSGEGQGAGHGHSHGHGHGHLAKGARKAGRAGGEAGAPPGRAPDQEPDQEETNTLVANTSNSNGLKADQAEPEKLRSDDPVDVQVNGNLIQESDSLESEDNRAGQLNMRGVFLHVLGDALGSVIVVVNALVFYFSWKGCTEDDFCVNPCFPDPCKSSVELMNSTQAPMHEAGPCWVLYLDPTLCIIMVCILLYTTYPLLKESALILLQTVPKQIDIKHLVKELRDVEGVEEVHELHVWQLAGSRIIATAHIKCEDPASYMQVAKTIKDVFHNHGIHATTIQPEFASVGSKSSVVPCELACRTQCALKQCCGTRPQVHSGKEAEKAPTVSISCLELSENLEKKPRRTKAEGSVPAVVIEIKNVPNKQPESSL
Test: Proximity ligation assay (PLA) between GluN2A and ZnT1 in cortical cultures
Type: cell-based
Details: 3 μM overnight, cortical cultures 21-25 DIV, compared to scramble controls in sister cultures
Protocol: FIGS. 3A-3B: N2AZ disrupts ZnT1 binding to the GluN2A subunit of NMDAR. (FIG. 3A) Representative images of rat cortical cultures following proximity ligation assay (PLA) between GluN2A and ZnT1. The PLA immunofluorescently labeled sites of interaction between GluN2A and ZnT1 (white punctae). Additionally, Map2 is immunofluorescently labeled to visualize neuron morphology. Scale bar: 20 μm. Top row denotes PLA assay following overnight exposure to 3 μM scN2AZ, while bottom row denotes PLA assay following 3 μM N2AZ treatment. Insets show the localization of PLA punctae along a Map2 stained dendrite. […] Filled circles indicate the quantification of representative images in FIG. 3A. Error bars indicate mean±SEM. […]
Proximity ligation assays were performed using Duolink PLA kit. […] PLA puncta were counted automatically using Fiji ImageJ (Version 2.0) software using maximum intensity projection of 8 sequential images in the z plane. All images were normalized to the same intensity threshold using the Yen threshold setting prior to automated quantification of punctae.
Next, rat neuronal cortical cultures were utilized to determine whether N2AZ treatment was sufficient to disrupt GluN2A-ZnT1 binding in vitro. First, however, ZnT1 expression in cortical cultures was verified using quantitative PCR. […] Next, GluN2A-ZnT1 interactions in the cultures were quantified using a proximity ligation assay (PLA). […]

## NDSYLRSSL [Peptide N2AZ]
  amount of PLA puncta: significantly reduced
